Assay results published in ChEMBL document CHEMBL5260810, “Inhibition of bromodomain-containing protein 9 for the prevention of epigenetically-defined drug resistance” (Bioorg Med Chem Lett, 2017).

Columns and labels:
SIMA = test: Cytotoxicity against human SIMA cells measured after 8 days; type: functional, cell-based; conditions: 192 h
[1] = Cytotoxicity against human SNU-668 cells measured after 8 days; type: functional, cell-based; conditions: SNU668, 192 h
[2] = Cytotoxicity against human PK-45P cells measured after 8 days; type: functional, cell-based; conditions: 192 h
HCC1187 = test: Cytotoxicity against human HCC1187 cells measured after 8 days; type: functional, cell-based; conditions: HCC1187, 192 h
SK-N-DZ = test: Cytotoxicity against human SK-N-DZ cells measured after 8 days; type: functional, cell-based; conditions: 192 h
[3] = Cytotoxicity against human NCE-G 61 cells measured after 8 days; type: functional, cell-based; conditions: NCE-G 61, 192 h
KP-N-YN = test: Cytotoxicity against human KP-N-YN cells measured after 8 days; type: functional, cell-based; conditions: 192 h
JJN-3 = test: Cytotoxicity against human JJN-3 cells measured after 8 days; type: functional, cell-based; conditions: JJN-3, 192 h
PSN1 = test: Cytotoxicity against human PSN1 cells measured after 8 days; type: functional, cell-based; conditions: PSN1, 192 h
Ishikawa = test: Cytotoxicity against human Ishikawa cells measured after 8 days; type: functional, cell-based; conditions: 192 h
LXFL 529 = test: Cytotoxicity against human LXFL 529 cells measured after 8 days; type: functional, cell-based; conditions: LXFL 529, 192 h
HepG2 = test: Cytotoxicity against human HepG2 cells measured after 8 days; type: functional, cell-based; conditions: HepG2, 192 h
[4] = Cytotoxicity against human OVCA432 cells measured after 8 days; type: functional, cell-based; conditions: OVCA432, 192 h
G-402 = test: Cytotoxicity against human G-402 cells measured after 8 days; type: functional, cell-based; conditions: G-402, 192 h
[5] = Cytotoxicity against human RERF-GC-1B cells measured after 8 days; type: functional, cell-based; conditions: 192 h
PaTu 8988t = test: Cytotoxicity against human PaTu 8988t cells measured after 8 days; type: functional, cell-based; conditions: 192 h
HGC-27 = test: Cytotoxicity against human HGC-27 cells measured after 8 days; type: functional, cell-based; conditions: HGC-27, 192 h
[6] = Cytotoxicity against human HCC15 cells measured after 8 days; type: functional, cell-based; conditions: HCC15, 192 h
[7] = Cytotoxicity against human 4498-16820 Mel-BR1 cells measured after 8 days; type: functional, cell-based; conditions: 4498-16820 Mel-BR1, 192 h
[8] = Cytotoxicity against human ONCO-DG-1 cells measured after 8 days; type: functional, cell-based; conditions: ONCO-DG-1, 192 h
[9] = Cytotoxicity against human KHM-5M cells measured after 8 days; type: functional, cell-based; conditions: 192 h
SK-MEL-2 = test: Cytotoxicity against human SK-MEL-2 cells measured after 8 days; type: functional, cell-based; conditions: SK-MEL-2, 192 h
SNB-19 = test: Cytotoxicity against human SNB-19 cells measured after 8 days; type: functional, cell-based; conditions: SNB-19, 192 h
[10] = Cytotoxicity against human KP-3 cells measured after 8 days; type: functional, cell-based; conditions: KP-3, 192 h
[11] = Cytotoxicity against human KMRC-1 cells measured after 8 days; type: functional, cell-based; conditions: KMRC-1, 192 h
HuP-T3 = test: Cytotoxicity against human HuP-T3 cells measured after 8 days; type: functional, cell-based; conditions: HuP-T3, 192 h
[12] = Cytotoxicity against human BT-B cells measured after 8 days; type: functional, cell-based; conditions: 192 h
[13] = Cytotoxicity against human COLO 857 cells measured after 8 days; type: functional, cell-based; conditions: COLO 857, 192 h
[14] = Cytotoxicity against human Hs 852.T cells measured after 8 days; type: functional, cell-based; conditions: 192 h
[15] = Cytotoxicity against human Panc 02.03 cells measured after 8 days; type: functional, cell-based; conditions: Panc 02.03, 192 h
SUM149PT = test: Cytotoxicity against human SUM149PT cells measured after 8 days; type: functional, cell-based; conditions: 192 h
BaF3 = test: Cytotoxicity against mouse BaF3 cells measured after 8 days; type: functional, cell-based; conditions: BaF3, 192 h
SU.86.86 = test: Cytotoxicity against human SU-86-86 cells measured after 8 days; type: functional, cell-based; conditions: SU.86.86, 192 h
[16] = Cytotoxicity against human NCE-G 140 cells measured after 8 days; type: functional, cell-based; conditions: NCE-G 140, 192 h
SNU-449 = test: Cytotoxicity against human SNU-449 cells measured after 8 days; type: functional, cell-based; conditions: SNU-449, 192 h
[17] = Cytotoxicity against human UCSD-242L cells measured after 8 days; type: functional, cell-based; conditions: 192 h
Detroit 562 = test: Cytotoxicity against human Detroit 562 cells measured after 8 days; type: functional, cell-based; conditions: Detroit 562, 192 h
KYSE-30 = test: Cytotoxicity against human KYSE-30 cells measured after 8 days; type: functional, cell-based; conditions: KYSE-30, 192 h
[18] = Cytotoxicity against human BM-1604 cells measured after 8 days; type: functional, cell-based; conditions: BM-1604, 192 h
[19] = Cytotoxicity against human IGR-39 cells measured after 8 days; type: functional, cell-based; conditions: IGR-39, 192 h
HMV-2 cell line = test: Cytotoxicity against human HMV-2 cell line measured after 8 days; type: functional, cell-based; conditions: HMV-2, 192 h
MCF-10A = test: Cytotoxicity against human MCF-10A cells measured after 8 days; type: functional, cell-based; conditions: 192 h
SNU-398 = test: Cytotoxicity against human SNU-398 cells measured after 8 days; type: functional, cell-based; conditions: SNU-398, 192 h
COLO 201 = test: Cytotoxicity against human COLO201 cells measured after 8 days; type: functional, cell-based; conditions: COLO 201, 192 h
[20] = Cytotoxicity against human NCE-G 141 cells measured after 8 days; type: functional, cell-based; conditions: NCE-G 141, 192 h
[21] = Cytotoxicity against human JHH-4 cells measured after 8 days; type: functional, cell-based; conditions: JHH-4, 192 h
[22] = Cytotoxicity against human UKE-1 cells measured after 8 days; type: functional, cell-based; conditions: UKE1, 192 h
[23] = Cytotoxicity against human HCC89 cells measured after 8 days; type: functional, cell-based; conditions: HCC89, 192 h
[24] = Cytotoxicity against human RKN cells measured after 8 days; type: functional, cell-based; conditions: 192 h
Karpas-1106P = test: Cytotoxicity against human KARPAS-1106P cells measured after 8 days; type: functional, cell-based; conditions: 192 h
[25] = Cytotoxicity against human U-87 MG cells measured after 8 days; type: functional, cell-based, U-87MG ATCC; conditions: 192 h
KYSE-150 cell line = test: Cytotoxicity against human KYSE-150 cell line measured after 8 days; type: functional, cell-based; conditions: KYSE-150, 192 h
COLO-320-HSR = test: Cytotoxicity against human COLO 320HSR cells measured after 8 days; type: functional, cell-based; conditions: 192 h
[26] = Cytotoxicity against mouse JC cells measured after 8 days; type: functional, cell-based; conditions: 192 h
MDA-MB-435 = test: Cytotoxicity against human MDA-MB-435 cells measured after 8 days; type: functional, cell-based; conditions: MDA-MB-435, 192 h
S-117 = test: Cytotoxicity against human S-117 cells measured after 8 days; type: functional, cell-based; conditions: S-117, 192 h
[27] = Cytotoxicity against human COV318 cells measured after 8 days; type: functional, cell-based; conditions: COV318, 192 h
[28] = Cytotoxicity against human HCA1 cells measured after 8 days; type: functional, cell-based; conditions: HCA1, 192 h
KLE = test: Cytotoxicity against human KLE cells measured after 8 days; type: functional, cell-based; conditions: 192 h
MKN-74 = test: Cytotoxicity against human MKN-74 cells measured after 8 days; type: functional, cell-based; conditions: MKN-74, 192 h
SK-HEP1 = test: Cytotoxicity against human SK-HEP1 cells measured after 8 days; type: functional, cell-based; conditions: SK-HEP1, 192 h
[29] = Cytotoxicity against human SK23 cells measured after 8 days; type: functional, cell-based; conditions: SK-MEL-23, 192 h
[30] = Cytotoxicity against human FTC-238 cells measured after 8 days; type: functional, cell-based; conditions: FTC-238, 192 h

## C/C=C/Cn1cc(-c2ccc(C(C)(C)O)cc2OC)c2cc[nH]c2c1=O
SIMA
  IC50: 20 µM
[1]
  IC50: 20 µM
[2]
  IC50: 20 µM
HCC1187
  IC50: 20 µM
SK-N-DZ
  IC50: 18.6 µM
[3]
  IC50: 20 µM
KP-N-YN
  IC50: 20 µM
JJN-3
  IC50: 17.6 µM
PSN1
  IC50: 20 µM
Ishikawa
  IC50: 20 µM
LXFL 529
  IC50: 20 µM
HepG2
  IC50: 20 µM
[4]
  IC50: 20 µM
G-402
  IC50: 11.7 µM
[5]
  IC50: 20 µM
PaTu 8988t
  IC50: 20 µM
HGC-27
  IC50: 14.4 µM
[6]
  IC50: 20 µM
[7]
  IC50: 15.5 µM
[8]
  IC50: 20 µM
[9]
  IC50: 20 µM
SK-MEL-2
  IC50: 20 µM
SNB-19
  IC50: 20 µM
[10]
  IC50: 20 µM
[11]
  IC50: 20 µM
HuP-T3
  IC50: 14.1 µM
[12]
  IC50: 20 µM
[13]
  IC50: 20 µM
[14]
  IC50: 20 µM
[15]
  IC50: 20 µM
SUM149PT
  IC50: 20 µM
BaF3
  IC50: 20 µM
SU.86.86
  IC50: 20 µM
[16]
  IC50: 20 µM
SNU-449
  IC50: 20 µM
[17]
  IC50: 20 µM
Detroit 562
  IC50: 20 µM
KYSE-30
  IC50: 20 µM
[18]
  IC50: 20 µM
[19]
  IC50: 20 µM
HMV-2 cell line
  IC50: 20 µM
MCF-10A
  IC50: 11.4 µM
SNU-398
  IC50: 20 µM
COLO 201
  IC50: 20 µM
[20]
  IC50: 20 µM
[21]
  IC50: 20 µM
[22]
  IC50: 20 µM
[23]
  IC50: 20 µM
[24]
  IC50: 20 µM
Karpas-1106P
  IC50: 8.61 µM
[25]
  IC50: 20 µM
KYSE-150 cell line
  IC50: 20 µM
COLO-320-HSR
  IC50: 20 µM
[26]
  IC50: 20 µM
MDA-MB-435
  IC50: 11.1 µM
S-117
  IC50: 20 µM
[27]
  IC50: 20 µM
[28]
  IC50: 20 µM
KLE
  IC50: 20 µM
MKN-74
  IC50: 20 µM
SK-HEP1
  IC50: 20 µM
[29]
  IC50: 6.07 µM
[30]
  IC50: 9.52 µM

## C/C=C/Cn1cc(-c2ccc(C(=O)N3CCOCC3)cc2)c2cc[nH]c2c1=O
SIMA
  IC50: 20 µM
[1]
  IC50: 20 µM
[2]
  IC50: 20 µM
HCC1187
  IC50: 20 µM
SK-N-DZ
  IC50: 20 µM
[3]
  IC50: 20 µM
KP-N-YN
  IC50: 20 µM
JJN-3
  IC50: 12.2 µM
PSN1
  IC50: 20 µM
Ishikawa
  IC50: 20 µM
LXFL 529
  IC50: 20 µM
HepG2
  IC50: 20 µM
[4]
  IC50: 20 µM
G-402
  IC50: 4.76 µM
[5]
  IC50: 20 µM
PaTu 8988t
  IC50: 20 µM
HGC-27
  IC50: 16.9 µM
[6]
  IC50: 20 µM
[7]
  IC50: 20 µM
[8]
  IC50: 20 µM
[9]
  IC50: 20 µM
SK-MEL-2
  IC50: 20 µM
SNB-19
  IC50: 20 µM
[10]
  IC50: 20 µM
[11]
  IC50: 20 µM
HuP-T3
  IC50: 20 µM
[12]
  IC50: 20 µM
[13]
  IC50: 20 µM
[14]
  IC50: 20 µM
[15]
  IC50: 20 µM
SUM149PT
  IC50: 20 µM
BaF3
  IC50: 20 µM
SU.86.86
  IC50: 20 µM
[16]
  IC50: 20 µM
SNU-449
  IC50: 20 µM
[17]
  IC50: 20 µM
Detroit 562
  IC50: 20 µM
KYSE-30
  IC50: 20 µM
[18]
  IC50: 20 µM
[19]
  IC50: 20 µM
HMV-2 cell line
  IC50: 20 µM
MCF-10A
  IC50: 20 µM
SNU-398
  IC50: 20 µM
COLO 201
  IC50: 20 µM
[20]
  IC50: 20 µM
[21]
  IC50: 20 µM
[22]
  IC50: 12.4 µM
[23]
  IC50: 20 µM
[24]
  IC50: 20 µM
Karpas-1106P
  IC50: 12.2 µM
[25]
  IC50: 20 µM
KYSE-150 cell line
  IC50: 20 µM
COLO-320-HSR
  IC50: 20 µM
[26]
  IC50: 20 µM
MDA-MB-435
  IC50: 20 µM
S-117
  IC50: 20 µM
[27]
  IC50: 20 µM
[28]
  IC50: 20 µM
KLE
  IC50: 20 µM
MKN-74
  IC50: 20 µM
SK-HEP1
  IC50: 20 µM
[29]
  IC50: 20 µM
[30]
  IC50: 20 µM
